According to paper PMC8694140, “Synthesis and photobiological applications of naphthalimide–benzothiazole conjugates: cytotoxicity and topoisomerase IIα inhibition” (RSC Advances, 2021):
Where two headings read alike, the source gives them in different places.

Key:
[1] = molecular target: T1, human serum albumin (HSA) (Homo sapiens, UniProt P02768); assay: HSA fluorescence quenching (Stern–Volmer, modified Stern–Volmer, van't Hoff); assay type: binding; details: 308 K
[2] = molecular target: T1, human serum albumin (HSA); assay: Excited-state fluorescence lifetime of HSA; assay type: binding
[3] = molecular target: T1, human serum albumin (HSA); assay: Energy transfer (FRET) between HSA and compounds; assay type: binding; details: compound acceptor; for E (efficiency of energy transfer) / R0 (critical distance, 50% efficiency of energy transfer): HSA donor
Text: Eqn (8)–(10) are used to calculate the values of overlap integral of an emission spectrum of donor with the absorption spectrum of the acceptor (J), the critical distance (50% efficiency of energy transfer, R0), efficiency of energy transfer (E), and the distance among donor and acceptor (r). […] The calculated distance between donor and acceptor for compounds 12 and 13 was found less than 8 nm, and both compounds follow 0.5R0 < r < 1.5R0.
The energy transfer study was accomplished by recording the HSA emission spectrum at 280 nm excitation wavelength and the absorption spectra of compounds 12 and 13.
The following eqn (8)–(10) were used to determine the donor to acceptor energy transfer (E), the critical distance required for energy transfer by 50% (R0), overlap integral of the emission spectrum of donor with the absorption spectrum of the acceptor (J), and distance among the donor and the acceptor (r):[39,57]8 [drawing 6] In this equation, F0 and F denote the emission intensities of HSA in free form and the presence of compounds 12 and 13, respectively.9 R0^6 = 8.8 × 10^−25k^2η^−4ϕJwhere k^2, η, ϕ denote the orientation factor of dipoles, refracted index for used medium, and fluorescence quantum yield of the donor.10 [drawing 7] In this equation, F(λ) denotes the emission intensity for the free form of the donor at the wavelength λ, whereas ε(λ) denotes the molar absorption coefficient of acceptor at the wavelength λ.

[4] = molecular target: T1, human serum albumin (HSA); assay: HSA fluorescence quenching (Stern–Volmer, modified Stern–Volmer, van't Hoff); assay type: binding; details: for Kd: read-out: K b (binding constant, modified Stern–Volmer) (converted); for quenching of emission of HSA at 347 nm: HSA 10 μM, compound up to 33 μM, λex 280 nm; for ΔH of HSA binding / ΔS of HSA binding: van't Hoff plot, 298–318 K
Experimental: The binding of compounds to HSA can affect the fluorescence of these fluorophores.[34–36] […] Incremental addition of compounds 12 and 13 (33 μM) led to good quenching (90–95%) of emission of HSA at 347 nm (Fig. 5, S58, and S59 ^†), which indeed indicated the binding of compounds to HSA. Fluorescence quenching data have been analyzed using the Stern–Volmer equation eqn (3)[38] at three different temperatures, i.e., 298 K, […], and 318 K, where Stern–Volmer plots were obtained (Fig. S60 and S61 ^†). Good linearity of plots was observed having a correlation coefficient (R) ≥ 0.9396 throughout all the experiments. The values of the Stern–Volmer quenching constant (KSV), a measure of fluorescence quenching efficiency of the analyte, were calculated from these plots and are reported in Table 2. The fluorescence quenching mechanism, whether dynamic or static quenching, can be investigated using the dependency of KSV values on temperature. […] Thus, the detected quenching in fluorescence of HSA on the addition of compounds 12 and 13 appears as a result of complex formation between compound and HSA. […] Thus, in the present study, the static quenching phenomenon has occurred in the quenching process for represented HSA–compound systems.
To record the emission spectra, a fixed amount of HSA (10 μM) was titrated with increasing concentration of compounds 12 and 13 (33 μM) in phosphate buffer of pH 7.4 at 298 K, 308 K, and 318 K. All spectra were recorded in the range of 200–800 nm at excitation wavelength 280 nm and a constant slit width was used for excitation and emission throughout the experiments.
To determine the quenching constant, following Stern–Volmer eqn (3) was used.3 [drawing 3] where, F0 and F denote the emission intensity of HSA in free form and the presence of compounds 12 and 13, respectively. The plots of F0/F versus [compound] were used to determine the Stern–Volmer quenching constants (KSV) and bimolecular quenching constants (Kq).
Further to determine the binding constants (Kb) and the average number of binding sites (n), the following modified Stern–Volmer eqn (4) was used.4 [drawing 4] where F0 and F are the same as in eqn (3). The values of Kb and n were determined from intercept and slope, respectively, as log{(F0 − F)/F versus log[compound]} plots.
The thermodynamic parameters such as the change in enthalpy (ΔH) and change in entropy (ΔS) were determined by following the van't Hoff eqn (5):5 [drawing 5] R and T denote the gas constant and absolute temperature, respectively.
The change in free energy (ΔG) for various temperatures was determined by the following eqn (6):6 ΔG = ΔH − TΔS

[5] = system: A549 (lung) human cancer cell line; assay: MTT cytotoxicity assay, A549; assay type: cell-based; details: Homo sapiens, A549, 48 h
Experimental: Human malignant cell lines, i.e., MCF7 (breast), HeLa (cervix), and A549 (lung), as well as non-cancerous human cell line Hek293 (kidney), were cultured using the Ham's media or DMEM having 10% FBS, […] streptomycin, 100 U ml^−1 penicillin, and 50 mM glutamine. For seeding of cells, 96 well plates were used, maintaining the density of […] cells per well with the help of DMEM as a media having 10% FBS cells. Then, seeded cells were incubated in an incubator having a 5% CO2 supply at 37 °C. Compounds were added to the wells at 1, 10, and 100 μM concentrations, and cells were incubated for 48 h at 37 °C and then added 10 μl of MTT to each well prepared from 5 mg ml^−1 stock solution using 1 × PBS buffer and were incubated for 4 h at 37 °C in the dark. DMSO (100 μl) was used to dissolve the formazan crystals. To determine the concentration of formazan, the crystal absorbance difference was recorded at 570 nm. The percentage of relative cell toxicity was calculated by using the following eqn (1):1 [drawing 1]

T1 sequence (P02768 25-609): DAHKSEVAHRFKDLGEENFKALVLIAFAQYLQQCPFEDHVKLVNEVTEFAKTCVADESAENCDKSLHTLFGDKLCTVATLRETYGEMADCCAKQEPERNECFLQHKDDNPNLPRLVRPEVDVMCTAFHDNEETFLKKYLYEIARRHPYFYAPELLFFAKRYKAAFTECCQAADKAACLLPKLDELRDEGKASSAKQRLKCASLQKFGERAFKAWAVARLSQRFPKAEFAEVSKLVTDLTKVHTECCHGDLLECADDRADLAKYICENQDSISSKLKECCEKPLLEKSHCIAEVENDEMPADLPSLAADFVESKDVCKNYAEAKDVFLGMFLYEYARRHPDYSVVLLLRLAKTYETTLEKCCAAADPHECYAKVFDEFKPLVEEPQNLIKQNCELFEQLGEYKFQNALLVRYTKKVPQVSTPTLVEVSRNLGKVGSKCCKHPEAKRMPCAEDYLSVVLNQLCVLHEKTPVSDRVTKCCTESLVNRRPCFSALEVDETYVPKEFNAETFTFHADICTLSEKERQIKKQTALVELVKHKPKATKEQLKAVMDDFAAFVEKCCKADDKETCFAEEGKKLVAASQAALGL

Compound	K SV (Stern–Volmer quenching constant) [1]	K q (bimolecular quenching rate constant) [1]	n (average number of binding sites) [1]	ΔG of HSA binding [1] [kJ/M]	melting point [°C]	τ 1 of HSA fluorescence decay ([2]; compound 7 μM) [ns]	τ 2 of HSA fluorescence decay ([2]; compound 7 μM) [ns]	α 1 of HSA fluorescence decay ([2]; compound 35 μM)	α 2 of HSA fluorescence decay ([2]; compound 35 μM)	α 3 of HSA fluorescence decay ([2]; compound 35 μM)	τ 1 of HSA fluorescence decay ([2]; compound 35 μM) [ns]	τ 2 of HSA fluorescence decay ([2]; compound 35 μM) [ns]	τ 3 of HSA fluorescence decay ([2]; compound 35 μM) [ns]	τ (average fluorescence lifetime of HSA) ([2]; compound 35 μM) [ns]	α 1 of HSA fluorescence decay ([2]; compound 70 μM)	α 2 of HSA fluorescence decay ([2]; compound 70 μM)	α 3 of HSA fluorescence decay ([2]; compound 70 μM)	τ 1 of HSA fluorescence decay ([2]; compound 70 μM) [ns]	τ 2 of HSA fluorescence decay ([2]; compound 70 μM) [ns]	τ 3 of HSA fluorescence decay ([2]; compound 70 μM) [ns]	further results
C=CCn1cc(-c2nc3ccccc3s2)c2cc(-c3ccc4c5c(cccc35)C(=O)N(CCO)C4=O)ccc21 [Compound 12, 6-(1-Allyl-3-(benzo[d]thiazol-2-yl)-1H-indol-5-yl)-2-(2-hydroxyethyl)-1H-benzo[de]isoquinoline-1,3(2H)-dione]	5.19 10^6 M^−1	5.19 10^14 M^−1 s^−1	1.17	-8.87	292 to 295	3.29	7.32	0.41	0.18	0.40	3.37	7.34	0.86	3.09	0.39	0.20	0.41	3.14	7.03	0.80	τ (average fluorescence lifetime of HSA) ([2]; compound 70 μM): 2.97 ns; E (efficiency of energy transfer) [3]: 0.92; R0 (critical distance, 50% efficiency of energy transfer) [3]: 0.592 nm; J (overlap integral of donor emission with acceptor absorption) [3]: 1.04 × 10^−18 cm^3 L mol^−1; r (distance among donor and acceptor) [3]: 0.393 nm; K SV (Stern–Volmer quenching constant) ([4]; 298 K): 10.46 10^6 M^−1; K q (bimolecular quenching rate constant) ([4]; 298 K): 10.46 10^14 M^−1 s^−1; n (average number of binding sites) ([4]; 298 K): 1.32; ΔG of HSA binding ([4]; 298 K): -9.27 kJ/M; Kd ([4]; 298 K): 0.136 µM; Kd ([4]; 308 K): 0.658 µM; K SV (Stern–Volmer quenching constant) ([4]; 318 K): 1.27 10^6 M^−1; K q (bimolecular quenching rate constant) ([4]; 318 K): 1.27 10^14 M^−1 s^−1; n (average number of binding sites) ([4]; 318 K): 1.30; ΔG of HSA binding ([4]; 318 K): -8.46 kJ/M; Kd ([4]; 318 K): 1.19 µM; quenching of emission of HSA at 347 nm [4]: 90–95%; ΔH of HSA binding [4]: -21.32 kJ/M; ΔS of HSA binding [4]: −40.44 J M^−1 K^−1; IC50 [5]: 0.14 ± 0.01 µM
C#CCN1C(=O)c2cccc3c(-c4ccc5c(c4)c(-c4nc6ccccc6s4)cn5CC=C)ccc(c23)C1=O [Compound 13, 6-(1-Allyl-3-(benzo[d]thiazol-2-yl)-1H-indol-5-yl)-2-(prop-2-yn-1-yl)-1H-benzo[de]isoquinoline-1,3(2H)-dione]	2.38 10^6 M^−1	2.38 10^14 M^−1 s^−1	1.07	-7.93	282 to 285	3.19	7.17	0.39	0.24	0.37	3.12	6.97	0.85	3.19	0.39	0.19	0.41	3.36	7.25	0.86	τ (average fluorescence lifetime of HSA) ([2]; compound 70 μM): 3.08 ns; E (efficiency of energy transfer) [3]: 0.93; R0 (critical distance, 50% efficiency of energy transfer) [3]: 0.591 nm; J (overlap integral of donor emission with acceptor absorption) [3]: 1.039 × 10^−18 cm^3 L mol^−1; r (distance among donor and acceptor) [3]: 0.377 nm; K SV (Stern–Volmer quenching constant) ([4]; 298 K): 2.58 10^6 M^−1; K q (bimolecular quenching rate constant) ([4]; 298 K): 2.58 10^14 M^−1 s^−1; n (average number of binding sites) ([4]; 298 K): 1.17; ΔG of HSA binding ([4]; 298 K): -8.37 kJ/M; Kd ([4]; 298 K): 0.662 µM; Kd ([4]; 308 K): 2.78 µM; K SV (Stern–Volmer quenching constant) ([4]; 318 K): 0.30 10^6 M^−1; K q (bimolecular quenching rate constant) ([4]; 318 K): 0.30 10^14 M^−1 s^−1; n (average number of binding sites) ([4]; 318 K): 1.00; ΔG of HSA binding ([4]; 318 K): -7.49 kJ/M; Kd ([4]; 318 K): 6.67 µM; quenching of emission of HSA at 347 nm [4]: 90–95%; ΔH of HSA binding [4]: -21.41 kJ/M; ΔS of HSA binding [4]: −43.76 J M^−1 K^−1; IC50 [5]: 0.31 ± 0.01 µM
